Reference: US8951975B2, “ECT2 peptides and vaccines including the same” (OncoTherapy Science, Inc., priority 2010, dated 2015)
“Also recorded” adds a separate entry of the source. Ends that are not written are not given here.

Tests used:
[1] = system: peptide-pulsed T2 cells; test: IFN-gamma ELISPOT assay on CTLs induced with peptide-pulsed DCs; type: cell-based, human; conditions: for CTL inducibility / specific CTL activity of CTLs stimulated with the peptide: summary statement; for IFN-gamma production of CTLs induced with the peptide (ELISPOT): against peptide-pulsed target cells, compared with control without peptide
Description: Monocyte-derived dendritic cells (DCs) were used as antigen-presenting cells to induce cytotoxic T lymphocyte (CTL) responses against peptides presented on human leukocyte antigen (HLA). DCs were generated in vitro as described elsewhere (Nakahara S et al., Cancer Res 2003 Jul. 15, 63(14): 4112-8). Specifically, peripheral blood mononuclear cells (PBMCs) isolated from a normal volunteer (HLA-A*0201 positive) by Ficoll-Plaque (Pharmacia) solution were separated by adherence to a plastic tissue culture dish (Becton Dickinson) so as to enrich them as the monocyte fraction. The monocyte-enriched population was cultured in the presence of 1,000 U/ml of granulocyte-macrophage colony-stimulating factor (R&D System) and 1,000 U/ml of interleukin (IL)-4 (R&D System) in AIM-V Medium (Invitrogen) containing 2% heat-inactivated autologous serum (AS). After 7 days of culture, the cytokine-induced DCs were pulsed with 20 micro-g/ml of each of the synthesized peptides in the presence of 3 micro-g/ml of beta 2-microglobulin for 3 hrs at 37 degrees C. in AIM-V Medium. The generated cells appeared to express DC-associated molecules, such as CD80, CD83, CD86 and HLA class II, on their cell surfaces (data not shown). These peptide-pulsed DCs were then inactivated by X-irradiation (20 Gy) and mixed at a 1:20 ratio with autologous CD8+ T cells, obtained by positive selection with CD8 Positive Isolation Kit (Dynal). These cultures were set up in 48-well plates (Corning); each well contained 1.5×10^4 peptide-pulsed DCs, 3×10^5 CD8+ T cells and 10 ng/ml of IL-7 (R&D System) in 0.5 ml of AIM-V/2% AS medium. Three days later, these cultures were supplemented with IL-2 (CHIRON) to a final concentration of 20 IU/ml. On days 7 and 14, the T cells were further stimulated with the autologous peptide-pulsed DCs. The DCs were prepared each time by the same way described above. CTLs were tested against peptide-pulsed T2 cells after the 3rd round of peptide stimulation on day 21 (Tanaka H et al., Br J Cancer 2001 Jan. 5, 84(1): 94-9; Umano Y et al., Br J Cancer 2001 Apr. 20, 84(8): 1052-7; Uchida N et al., Clin Cancer Res 2004 Dec. 15, 10(24): 8577-86; Suda T et al., Cancer Sci 2006 May, 97(5): 411-9; Watanabe T et al., Cancer Sci 2005 August, 96(8): 498-506).
(§1) Specifically, peptide-pulsed T2 (1×10^4/well) was prepared as stimulator cells. Cultured cells in 48 wells were used as responder cells. IFN-gamma ELISPOT assay and IFN-gamma ELISA assay were performed under manufacture procedure.

[2] = system: peptide-pulsed T2 cells; test: IFN-gamma ELISA assay of established CTL lines; type: cell-based, human; conditions: against target cells pulsed with the corresponding peptide vs without peptide pulse
Experimental: CTLs were expanded in culture using the method similar to the one described by Riddell et al. (Walter E A et al., N Engl J Med 1995 Oct. 19, 333(16): 1038-44; Riddell S R et al., Nat Med 1996 February, 2(2): 216-23). A total of 5×10^4 CTLs were suspended in 25 ml of AIM-V/5% AS medium with 2 kinds of human B-lymphoblastoid cell lines, inactivated by Mitomycin C, in the presence of 40 ng/ml of anti-CD3 monoclonal antibody (Pharmingen). One day after initiating the cultures, 120 IU/ml of IL-2 were added to the cultures. The cultures were fed with fresh AIM-V/5% AS medium containing 30 IU/ml of IL-2 on days 5, 8 and 11 (Tanaka H et al., Br J Cancer 2001 Jan. 5, 84(1): 94-9; Umano Y et al., Br J Cancer 2001 Apr. 20, 84(8): 1052-7; Uchida N et al., Clin Cancer Res 2004 Dec. 15, 10(24): 8577-86; Suda T et al., Cancer Sci 2006 May, 97(5): 411-9; Watanabe T et al., Cancer Sci 2005 August, 96(8): 498-506).
as §1

[3] = system: peptide-pulsed T2 cells; test: IFN-gamma ELISA assay of CTL clones established by limiting dilution; type: cell-based, human; conditions: against target cells pulsed with peptide vs not pulsed
Experimental: The dilutions were made to have 0.3, 1, and 3 CTLs/well in 96 round-bottomed micro titer plate (Nalge Nunc International). CTLs were cultured with 1×10^4 cells/well of 2 kinds of human B-lymphoblastoid cell lines, 30 ng/ml of anti-CD3 antibody, and 125 U/ml of IL-2 in a total of 150 micro-l/well of AIM-V Medium containing 5% AS. 50 micro-1/well of IL-2 were added to the medium 10 days later so to reach a final concentration of 125 U/ml IL-2. CTL activity was tested on the 14th day, and CTL clones were expanded using the same method as described above (Uchida N et al., Clin Cancer Res 2004 Dec. 15, 10(24): 8577-86; Suda T et al., Cancer Sci 2006 May, 97(5): 411-9; Watanabe T et al., Cancer Sci 2005 August, 96(8): 498-506).
as §1

[4] = system: COS7 cells transfected with ECT2 and HLA-A*0201; test: Specific CTL activity against target cells exogenously expressing ECT2 and HLA-A*0201; type: cell-based, African green monkey; conditions: for Specific CTL activity against COS7 cells transfected with both ECT2 and HLA-A*0201: CTL clone (SEQ ID NO: 1) or CTL line (SEQ ID NO: 21) as effector cells; for Specific CTL activity against control COS7 cells expressing either HLA-A*0201 or ECT2: controls transfected with only one gene
Description: The cDNA encoding an open reading frame of target genes or HLA-A*0201 was amplified by PCR. The PCR-amplified product was cloned into a vector. The plasmids were transfected into COS7, which is the target genes and HLA-A*0201-null cell line, using lipofectamine 2000 (Invitrogen) according to the manufacturer's recommended procedures. After 2 days from transfection, the transfected cells were harvested with versene (Invitrogen) and used as the target cells (5×10^4 cells/well) for CTL activity assay.
The established CTL lines and clones raised against these peptides was examined for the ability to recognize target cells that exogenously express ECT2 and HLA-A*0201 molecule. […] COS7 cells transfected with either full length of ECT2 or HLA-A*0201 were prepared as the controls.

Substance | CTL inducibility / specific CTL activity of CTLs stimulated with the peptide [1] | IFN-gamma production of CTLs induced with the peptide (ELISPOT) [1] | IFN-gamma production of CTL lines stimulated with the peptide (ELISA) [2] | IFN-gamma production of CTL clones stimulated with the peptide (ELISA) ([3]; listed as ECT2-A02-9-664) | IFN-gamma production of CTL clones stimulated with the peptide (ELISA) ([3]; listed as ECT2-A02-9-34) | Specific CTL activity against COS7 cells transfected with both ECT2 and HLA-A*0201 ([4]; listed as ECT2-A02-9-34) | Specific CTL activity against control COS7 cells expressing either HLA-A*0201 or ECT2 [4] | Specific CTL activity against COS7 cells transfected with both ECT2 and HLA-A*0201 ([4]; listed as ECT2-A02-10-33)
1 (LLIGSTSYV) [compound 1] | strong CTL inducibility | – | – | – | – | – | – | –
3 (FLFNDCLEI) [compound 3] | strong CTL inducibility | – | – | – | – | – | – | –
21 (NLLIGSTSYV) [compound 21] | strong CTL inducibility | – | – | – | – | – | – | –
FLFNDCLEI [SEQ ID NO: 3] | significant and specific CTL activity | potent IFN-gamma production | potent IFN-gamma production | potent IFN-gamma production | – | – | – | –
LLIGSTSYV [SEQ ID NO: 1] | significant and specific CTL activity | potent IFN-gamma production | potent IFN-gamma production | – | potent IFN-gamma production | potent CTL activity; also recorded: specific CTL activity | no significant specific CTL activity was detected | –
NLLIgSTSYV (NLLIGSTSYV; not fully specified; printed as NLLIgSTSYV) [SEQ ID NO: 21] | significant and specific CTL activity | potent IFN-gamma production | potent IFN-gamma production | – | – | – | no significant specific CTL activity was detected | potent CTL activity; also recorded: specific CTL activity
